Measurements as given in US20250170248A1, “SMARCA DEGRADERS AND USES THEREOF” (Kymera Therapeutics, Inc., priority 2021, published 2025).

Experiments:
Type in all cases: cell-based
SMARCA2 [1] = target: T1, SMARCA2 (Homo sapiens, UniProt P51531); experiment: MSD SMARCA2 degradation in A549 cell line; conditions: for Dmax: A549, A549 cells; for Dmax / DC50: 24 h; for DC50 / SMARCA2 MSD A549 degradation 24 h: Average Dmax %: A549 cells; for DC50: read-out: SMARCA2 MSD A549 degradation 24 h: Average external-Abs DC50
T1 sequence (P51531 whole entry): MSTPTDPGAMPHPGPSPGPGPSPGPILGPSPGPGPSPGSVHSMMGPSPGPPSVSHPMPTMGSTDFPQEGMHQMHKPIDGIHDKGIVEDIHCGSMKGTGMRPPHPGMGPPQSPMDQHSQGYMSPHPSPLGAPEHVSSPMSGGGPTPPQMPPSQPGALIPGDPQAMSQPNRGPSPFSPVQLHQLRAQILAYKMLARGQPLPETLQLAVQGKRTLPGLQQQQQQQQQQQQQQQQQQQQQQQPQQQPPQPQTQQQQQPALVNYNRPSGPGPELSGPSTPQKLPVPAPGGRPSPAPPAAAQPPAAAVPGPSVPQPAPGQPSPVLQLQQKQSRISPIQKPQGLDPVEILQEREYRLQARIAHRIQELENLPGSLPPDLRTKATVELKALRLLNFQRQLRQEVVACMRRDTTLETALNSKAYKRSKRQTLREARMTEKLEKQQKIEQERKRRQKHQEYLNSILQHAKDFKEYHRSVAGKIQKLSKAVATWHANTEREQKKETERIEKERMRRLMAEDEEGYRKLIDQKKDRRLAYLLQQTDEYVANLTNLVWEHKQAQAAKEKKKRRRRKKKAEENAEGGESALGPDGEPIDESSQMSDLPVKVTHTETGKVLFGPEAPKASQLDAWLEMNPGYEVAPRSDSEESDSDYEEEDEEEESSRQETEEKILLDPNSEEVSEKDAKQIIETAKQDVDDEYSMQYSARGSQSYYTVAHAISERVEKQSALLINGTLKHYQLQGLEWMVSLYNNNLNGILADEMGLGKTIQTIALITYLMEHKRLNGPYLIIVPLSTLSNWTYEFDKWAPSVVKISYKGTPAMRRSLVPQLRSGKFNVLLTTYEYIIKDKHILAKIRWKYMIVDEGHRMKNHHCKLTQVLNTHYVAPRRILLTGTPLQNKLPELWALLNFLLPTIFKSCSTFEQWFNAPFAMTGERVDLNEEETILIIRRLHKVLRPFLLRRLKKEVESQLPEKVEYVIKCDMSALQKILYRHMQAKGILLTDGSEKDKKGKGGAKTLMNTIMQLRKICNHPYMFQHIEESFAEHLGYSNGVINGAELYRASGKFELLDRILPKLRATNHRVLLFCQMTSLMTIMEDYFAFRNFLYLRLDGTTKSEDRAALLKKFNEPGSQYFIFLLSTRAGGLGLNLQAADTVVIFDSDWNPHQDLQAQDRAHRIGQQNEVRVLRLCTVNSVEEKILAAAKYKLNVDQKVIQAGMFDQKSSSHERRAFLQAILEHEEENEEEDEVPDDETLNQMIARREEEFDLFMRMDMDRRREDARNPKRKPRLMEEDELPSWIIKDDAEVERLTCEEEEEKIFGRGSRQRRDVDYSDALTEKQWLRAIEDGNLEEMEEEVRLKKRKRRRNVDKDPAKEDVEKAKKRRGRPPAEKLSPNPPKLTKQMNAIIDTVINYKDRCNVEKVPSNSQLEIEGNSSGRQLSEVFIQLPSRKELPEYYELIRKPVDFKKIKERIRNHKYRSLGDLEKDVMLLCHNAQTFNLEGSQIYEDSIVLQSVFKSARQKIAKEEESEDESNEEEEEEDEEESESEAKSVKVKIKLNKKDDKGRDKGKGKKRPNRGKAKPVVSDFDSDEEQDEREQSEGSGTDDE
Outline: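 A549 cells treated 24 h with compound, 3-fold series from 1000 nM. Lysates captured on MSD plates and SMARCA2 quantified with anti-SMARCA2 and SULFO-TAG secondary antibodies (electrochemiluminescence). DC50 and Dmax (% degradation at 24 h) reported as letter bins.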

SMARCA4 = target: T2, SMARCA4 (Homo sapiens, UniProt P51532); experiment: SMARCA4 Western blot degradation in MV4-11 cells; conditions: for Dmax: MV4-11, MV4-11 cells, read-out: SMARCA4 MSD MV411 degradation 24 h: average Dmax %; for Dmax / DC50: 24 h; for DC50 / SMARCA4 MSD MV411 degradation 24 h: average Dmax %: MV4-11 cells; for DC50: read-out: SMARCA4 MSD MV411 degradation 24 h: Mean external-Abs DC50
T2 construct: SMARCA2/SMARCA4 protein degradation selectivity in MV4-11 cells; endogenous in cells; host or cells: MV4-11
T2 sequence (P51532 whole entry): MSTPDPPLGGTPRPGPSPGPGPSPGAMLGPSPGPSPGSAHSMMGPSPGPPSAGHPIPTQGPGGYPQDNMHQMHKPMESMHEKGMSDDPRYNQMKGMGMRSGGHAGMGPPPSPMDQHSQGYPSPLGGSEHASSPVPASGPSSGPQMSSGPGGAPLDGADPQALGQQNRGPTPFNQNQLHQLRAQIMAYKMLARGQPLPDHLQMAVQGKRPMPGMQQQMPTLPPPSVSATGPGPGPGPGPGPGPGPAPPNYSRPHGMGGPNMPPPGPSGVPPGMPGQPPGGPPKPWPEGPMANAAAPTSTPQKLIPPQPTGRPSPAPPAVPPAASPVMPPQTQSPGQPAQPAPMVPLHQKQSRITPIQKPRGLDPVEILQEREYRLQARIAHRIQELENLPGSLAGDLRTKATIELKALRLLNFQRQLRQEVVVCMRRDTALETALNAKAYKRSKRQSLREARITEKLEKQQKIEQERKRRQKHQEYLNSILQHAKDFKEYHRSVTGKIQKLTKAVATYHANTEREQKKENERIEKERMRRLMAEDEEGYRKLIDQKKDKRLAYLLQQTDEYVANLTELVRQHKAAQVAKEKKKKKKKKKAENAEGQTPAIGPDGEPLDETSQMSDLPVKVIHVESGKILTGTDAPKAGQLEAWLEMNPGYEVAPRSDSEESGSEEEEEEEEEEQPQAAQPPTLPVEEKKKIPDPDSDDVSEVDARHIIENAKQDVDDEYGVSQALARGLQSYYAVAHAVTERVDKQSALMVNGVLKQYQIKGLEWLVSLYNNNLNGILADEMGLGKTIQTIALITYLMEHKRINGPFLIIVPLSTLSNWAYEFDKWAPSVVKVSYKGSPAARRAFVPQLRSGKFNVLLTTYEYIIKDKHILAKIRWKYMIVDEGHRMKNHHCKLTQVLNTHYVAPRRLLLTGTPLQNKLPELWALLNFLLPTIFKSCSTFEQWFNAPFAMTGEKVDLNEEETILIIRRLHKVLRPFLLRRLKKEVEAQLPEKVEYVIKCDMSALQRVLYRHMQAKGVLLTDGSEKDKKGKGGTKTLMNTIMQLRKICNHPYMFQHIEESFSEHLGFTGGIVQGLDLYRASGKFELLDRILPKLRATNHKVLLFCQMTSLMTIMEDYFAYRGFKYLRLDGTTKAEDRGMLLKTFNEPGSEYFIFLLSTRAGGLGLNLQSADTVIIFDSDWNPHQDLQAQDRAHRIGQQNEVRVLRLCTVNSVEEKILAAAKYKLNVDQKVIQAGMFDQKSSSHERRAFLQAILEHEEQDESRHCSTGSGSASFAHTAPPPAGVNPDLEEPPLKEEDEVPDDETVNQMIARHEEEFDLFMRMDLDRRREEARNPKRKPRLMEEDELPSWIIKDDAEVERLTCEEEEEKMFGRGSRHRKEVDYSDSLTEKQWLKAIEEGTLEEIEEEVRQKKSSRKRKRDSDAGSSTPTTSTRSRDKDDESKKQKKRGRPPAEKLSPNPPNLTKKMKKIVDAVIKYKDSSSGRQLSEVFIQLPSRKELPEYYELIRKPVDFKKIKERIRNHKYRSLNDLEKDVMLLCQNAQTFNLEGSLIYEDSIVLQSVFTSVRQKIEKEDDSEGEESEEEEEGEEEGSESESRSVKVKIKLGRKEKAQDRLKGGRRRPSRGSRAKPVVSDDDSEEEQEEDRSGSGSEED
Outline: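 24 h compound exposure, MV4-11; RIPA lysates → SDS-PAGE → NC membrane; anti-SMARCA2/BRM, anti-BRG1, β-actin loading control; LI-COR fluorescence read. DC50 and Dmax at 24 h reported as letter bins.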

SMARCA2 [2] = target: T1, SMARCA2; experiment: SMARCA2 Western blot degradation in MV4-11 cells; set-up: SMARCA2/SMARCA4 protein degradation selectivity in MV4-11 cells; endogenous in cells; host or cells: MV4-11; conditions: for Dmax: MV4-11, MV4-11 cells, read-out: SMARCA2 MSD MV411 degradation 24 h: average Dmax %; for Dmax / DC50 / SMARCA2 MSD MV411 degradation 24 h: average Dmax %: 24 h; for DC50 / Selectivity in MV411 / SMARCA2 MSD MV411 degradation 24 h: average Dmax %: MV4-11 cells; for DC50: read-out: SMARCA2 MSD MV411 degradation 24 h: Mean external-Abs DC50; for Selectivity in MV411: SMARCA2/4 selectivity

Row | SMILES | Dmax (SMARCA2 [1]) [%] | DC50 (SMARCA2 [1]) [µM] | Dmax (SMARCA4) [%] | DC50 (SMARCA4) [µM] | Dmax (SMARCA2 [2]) [%] | DC50 (SMARCA2 [2]) [µM] | Selectivity in MV411 (SMARCA2 [2]) | SMARCA4 MSD MV411 degradation 24 h: average Dmax % (SMARCA4) | SMARCA2 MSD A549 degradation 24 h: Average Dmax % (SMARCA2 [1]) | SMARCA2 MSD MV411 degradation 24 h: average Dmax % (SMARCA2 [2])
1 | C#Cc1ccc(CNC(=O)[C@@H]2C[C@@H](O)CN2C(=O)[C@@H](NC(=O)[C@H]2CC3(C2)C[C@H](N2CCC(N4CCC(N5CCN6c7cc(-c8ccccc8O)nnc7NC[C@H]6C5)CC4)CC2)C3)C(C)(C)C)c(Cl)c1 (single isomer, unassigned) [I-229] | > 90 | > 0.1 | 50 to 70 | > 0.1 | 70 to 90 | 0.01 to 0.1 | B (B (>100-500 fold)) | – | – | –
2 | C#Cc1ccc(CNC(=O)[C@@H]2C[C@@H](O)CN2C(=O)[C@@H](NC(=O)N2CC3(CC(N4CCC(N5CCC(N6CCc7[nH]c8nnc(-c9ccccc9O)cc8c7[C@@H]6C)CC5)CC4)C3)C2)C(C)(C)C)c(F)c1 [I-182] | > 90 | > 0.1 | 70 to 90 | > 0.1 | 50 to 70 | 0.01 to 0.1 | D (D (<10 fold)) | – | – | –
3 | C#Cc1ccc(CNC(=O)[C@@H]2C[C@@H](O)CN2C(=O)[C@H](NC(=O)[C@H]2CCC3(CC2)C[C@H](N2CCN(c4cnc(N5CCN6c7cc(-c8ccccc8O)nnc7NC[C@H]6C5)nc4)CC2)C3)C(C)(C)CCO)c(Cl)c1 (stereo partly shown) [I-307] | – | > 0.1 | – | > 0.1 | – | – | D (D (<10 fold)) | D (D (<50% degradation)) | – | –
4 | C#Cc1ccc(CNC(=O)[C@@H]2C[C@@H](O)CN2C(=O)[C@@H](NC(=O)[C@H]2CC3(CC[C@H](N4CCN(c5cnc(N6CCc7[nH]c8nnc(-c9ccccc9O)cc8c7[C@H]6C)nc5)CC4)CC3)C2)C(C)(C)C)cc1 (single isomer, unassigned) [I-285] | > 90 | 0.01 to 0.05 | 70 to 90 | > 0.1 | 70 to 90 | 0.01 to 0.1 | C (C (10-100 fold)) | – | – | –
5 | C#Cc1ccc(CNC(=O)[C@@H]2C[C@@H](O)CN2C(=O)[C@@H](NC(=O)[C@H]2CC3(C2)C[C@H](c2cnc(N4CCC(N5CCN6c7cc(-c8ccccc8O)nnc7NC[C@H]6C5)CC4)nc2)C3)C(C)(C)C)cc1 (stereo partly shown) [I-302] | – | 0.01 to 0.05 | – | 0.01 to 0.1 | – | 0.001 to 0.01 | C (C (10-100 fold)) | – | – | –
6 | Cc1ncsc1-c1ccc(CNC(=O)[C@@H]2C[C@@H](O)CN2C(=O)C(c2cc(OCCCN3CCC(c4cnc(N5CCN6c7cc(-c8ccccc8O)nnc7NC[C@H]6C5)nc4)CC3)no2)C(C)C)cc1 (single isomer, unassigned) [I-53] | > 90 | 0.01 to 0.05 | > 90 | 0.001 to 0.01 | > 90 | < 0.001 | D (D (<10 fold)) | – | – | –
7 | C#Cc1ccc(CNC(=O)[C@@H]2C[C@@H](O)CN2C(=O)[C@@H](NC(=O)N2CCO[C@H](CN3CCC(N4CCC(N5CCN6c7cc(-c8ccccc8O)nnc7NC[C@H]6C5)CC4)CC3)C2)C(C)(C)C)cc1 [I-219] | 50 to 70 | > 0.1 | < 50 | > 0.1 | < 50 | > 0.1 | C (C (10-100 fold)) | – | – | –
8 | C#Cc1cnc(CNC(=O)[C@@H]2C[C@@H](O)CN2C(=O)[C@@H](NC(=O)[C@H]2CCC3(CC2)C[C@H](N2CCC(c4cnc(N5CCN6c7cc(-c8ccccc8O)nnc7NC[C@H]6C5)nc4)CC2)C3)C(C)(C)C)c(OC)c1 (single isomer, unassigned) [I-298] | – | 0.01 to 0.05 | – | > 0.1 | – | > 0.1 | D (D (<10 fold)) | D (D (<50% degradation)) | B (B (>70-90% degradation)) | D (D (<50% degradation))
9 | C#Cc1ccc(CNC(=O)[C@@H]2C[C@@H](O)CN2C(=O)[C@@H](NC(=O)N2CC3(CC(N4CCC(c5cnc(N6CCN7c8cc(-c9ccccc9O)nnc8NC[C@H]7C6)nc5)CC4)C3)C2)C(C)(C)C)cc1 [I-111] | > 90 | < 0.01 | > 90 | 0.01 to 0.1 | > 90 | < 0.001 | C (C (10-100 fold)) | – | – | –
10 | C#Cc1ccc(CNC(=O)[C@@H]2C[C@@H](O)CN2C(=O)[C@H](NC(=O)N2CC3(CC(N4CCC(c5cnc(N6CCc7[nH]c8nnc(-c9ccccc9O)cc8c7[C@H]6C)nc5)CC4)C3)C2)C(C)(C)CCN2CCN[C@@H](C(=O)O)C2)cc1 [I-341] | < 50 | > 0.1 | < 50 | > 0.1 | < 50 | > 0.1 | C (C (10-100 fold)) | – | – | –
11 | C#Cc1ccc(CNC(=O)[C@@H]2C[C@@H](O)CN2C(=O)[C@@H](NC(=O)N2CCN(C[C@H]3CC[C@H](N4CCC(N5CCN6c7cc(-c8ccccc8O)nnc7NC[C@H]6C5)CC4)CC3)CC2)C(C)(C)C)cc1 [I-254] | 70 to 90 | 0.05 to 0.1 | < 50 | > 0.1 | 50 to 70 | 0.01 to 0.1 | B (B (>100-500 fold)) | – | – | –
12 | C#Cc1ccc(CNC(=O)[C@@H]2C[C@@H](O)CN2C(=O)[C@@H](NC(=O)N2CCC(N3CC4(CC(N5CC6(CC(N7CCc8[nH]c9nnc(-c%10ccccc%10O)cc9c8[C@H]7C)C6)C5)C4)C3)CC2)C(C)(C)C)cc1 [I-209] | 70 to 90 | > 0.1 | < 50 | > 0.1 | < 50 | > 0.1 | C (C (10-100 fold)) | – | – | –

Now from value to compound:

Row | Dmax (SMARCA2 [1]) [%] | DC50 (SMARCA2 [1]) [µM] | Dmax (SMARCA4) [%] | DC50 (SMARCA4) [µM] | Dmax (SMARCA2 [2]) [%] | DC50 (SMARCA2 [2]) [µM] | Selectivity in MV411 (SMARCA2 [2]) | SMARCA4 MSD MV411 degradation 24 h: average Dmax % (SMARCA4) | SMARCA2 MSD A549 degradation 24 h: Average Dmax % (SMARCA2 [1]) | SMARCA2 MSD MV411 degradation 24 h: average Dmax % (SMARCA2 [2]) | SMILES
13 | > 90 | 0.05 to 0.1 | < 50 | > 0.1 | 70 to 90 | 0.001 to 0.01 | B (B (>100-500 fold)) | – | – | – | C#Cc1ccc(CNC(=O)[C@@H]2C[C@@H](O)CN2C(=O)[C@@H](NC(=O)CCCCCCCN2CCC(N3CC4(CC(N5CCN6c7cc(-c8ccccc8O)nnc7NC[C@H]6C5)C4)C3)CC2)C(C)(C)C)cc1 [I-243]
14 | < 50 | > 0.1 | < 50 | > 0.1 | < 50 | > 0.1 | D (D (<10 fold)) | – | – | – | C#Cc1cc(O)c(CNC(=O)[C@@H]2C[C@@H](O)CN2C(=O)[C@@H](NC(=O)N2CC3(CC(N4CCC(c5cnc(N6CCc7[nH]c8nnc(-c9ccccc9O)cc8c7[C@H]6C)nc5)CC4)C3)C2)C(C)(C)C)c(Cl)c1 [I-281]
15 | > 90 | 0.05 to 0.1 | < 50 | > 0.1 | 70 to 90 | 0.001 to 0.01 | B (B (>100-500 fold)) | – | – | – | C#Cc1ccc([C@H](CO)NC(=O)[C@@H]2C[C@@H](O)CN2C(=O)[C@@H](NC(=O)N2CC3(CC(N4CCC(c5cnc(N6CCc7[nH]c8nnc(-c9ccccc9O)cc8c7[C@H]6C)nc5)CC4)C3)C2)C(C)(C)C)nc1 (single isomer, unassigned) [I-304]
16 | > 90 | > 0.1 | > 90 | > 0.1 | 70 to 90 | 0.01 to 0.1 | D (D (<10 fold)) | – | – | – | C#Cc1ccc(CNC(=O)[C@@H]2C[C@@H](O)CN2C(=O)[C@@H](NC(=O)N2CC3(CC(N4CCC(c5cnc(N6CCc7[nH]c8nnc(-c9ccccc9O)cc8c7[C@@H]6C)nc5)CC4)C3)C2)C(C)(C)C)cc1 [I-228]
17 | > 90 | > 0.1 | 50 to 70 | > 0.1 | 70 to 90 | 0.01 to 0.1 | B (B (>100-500 fold)) | – | – | – | C#Cc1ccc(CNC(=O)[C@@H]2C[C@@H](O)CN2C(=O)[C@@H](NC(=O)N2CC3(CC(N4CCC(N5CCC(N6CCc7[nH]c8nnc(-c9ccccc9O)cc8c7[C@H]6C)CC5)CC4)C3)C2)C(C)(C)C)cc1 (single isomer, unassigned) [I-179]
18 | – | – | < 50 | 0.01 to 0.1 | – | 0.01 to 0.1 | C (C (10-100 fold)) | – | D (D (<50% degradation)) | D (D (<50% degradation)) | Cc1ncsc1-c1ccc(CNC(=O)[C@@H]2C[C@@H](O)CN2C(=O)[C@@H](NC(=O)[C@H]2CC3(C2)C[C@H](N2CCN(c4cnc(N5CCN6c7cc(-c8ccccc8O)nnc7NC[C@H]6C5)nc4)CC2)C3)C(C)(C)C)cc1 (stereo partly shown) [I-18]
19 | > 90 | 0.01 to 0.05 | 70 to 90 | > 0.1 | 70 to 90 | 0.001 to 0.01 | C (C (10-100 fold)) | – | – | – | C#Cc1ccc([C@H](C)NC(=O)[C@@H]2C[C@@H](O)CN2C(=O)[C@@H](OC(=O)N2CC3(CC(N4CCC(c5cnc(N6CCc7[nH]c8nnc(-c9ccccc9O)cc8c7[C@H]6C)nc5)CC4)C3)C2)C(C)(C)C)cc1 [I-150]
20 | 50 to 70 | > 0.1 | < 50 | > 0.1 | < 50 | > 0.1 | C (C (10-100 fold)) | – | – | – | C#Cc1ccc(CNC(=O)[C@@H]2C[C@@H](O)CN2C(=O)[C@@H](NC(=O)N2CC3(CC(N4CCC(c5cnc(N6CCc7[nH]c8nnc(-c9ccccc9O)cc8c7[C@H]6C)nc5)CC4)C3)C2)C(C)(C)CCN2CCNCC2)cc1 [I-340]
